Earlier results as cited in patent publication US20020128313A1, “Method for improved pregnancy management and related composition” (priority 2000, published 2002).

Tested on: sows
[1] = 5 mg in extended boar sperm (Gil et al., 1998)

For CCCCC[C@H](O)/C=C/[C@@H]1[C@@H](C/C=C\CCCC(=O)O)[C@@H](O)C[C@H]1O [PGF2α, Prostaglandin F2α], the “Likelihood of a sow to become pregnant” value [1] is listed as “increased the likelihood of a sow to become pregnant”, the “Number of piglets born alive” value [1] is listed as “increased number of piglets born alive” and the “Effect on seasonal infertility in sows” value (Pena et al., 1998) is listed as “helped alleviate the effect of seasonal infertility”.
